# Measurements published in patent US20060173080A1, “Methods of modulating TNF using bupropion” (The Regents of the University of California, priority 2002, published 2006).
# Entries after “also recorded” stand apart in the source; their conditions may differ. Where a name gives a salt, the structure may show the parent alone.
# Tests used:
# [1] = system: CD patients; assay: Case reports of Crohn's disease patients on bupropion (CDAI, symptoms, flares); assay type: in vivo, human
# Text: Also, multiple toxicity issues are associated with taking medicines such as azathioprine, methotrexate, and steroids over time (Sartor R B. New therapeutic approaches to Crohn;s disease. N Engl J Med 2000;342:1664-1666). In CD, TNF is increased, and TNF is thought to play a central role in CD pathogenesis (Papadakis K A, Targan S R. Role of cytokines in the pathogenesis of inflammatory bowel disease. Annu Rev Med 2000;51:289-298). Monoaminergic and dopaminergic treatments can lower levels of TNF-alpha via increased intracellular adenosine 3′,5′-cyclic monophosphate (cAMP).
# person one presented in May of 1999 for treatment of an episode of major depression, superimposed on a chronic mild depressed state (dysthymia). […] They were not usually pain-free during the week, though usually did have several pain-free hours in a given day. […] Inadvertent loss of stool several times a month required daily use of adult protective pads. They were taking fluoxetine 40 mg every day for depression, and mesalamine 500 mg twice a day. CDAI was 202.
# After careful review of treatment options, they were started on bupropion (fluoxetine was stopped) with up-titration to 150 mg twice a day. Their abdominal complaints eased over the next months, and the major depression remitted. The baseline dysthymia remained. To better treat the dysthymia, bupropion was raised to 150 mg three times daily with a further lowering of their CDAI. The mesalamine was tapered off. Their CDAI is currently approximately zero. They have one well-formed bowel movement daily and has been without abdominal symptoms or encopresis for 19 months now. They have had no CD flares since starting bupropion. Twice in the last year, they stopped bupropion on their own accord because they felt completely well and felt they didn't need bupropion anymore.
# The above-described response to bupropion was consistent with other responses in CD patients. For example, a person with a 20-year history of Crohn's enteritis with multiple surgeries, including 4 small bowel resections. […] The patient was taking fluoxetine to help with pain control. […] Even though they were not able to stop smoking, the patient felt better on bupropion so they decided to continue this medicine with their family doctor's consent. Currently, the patient is taking bupropion 150 mg three times daily. […] Under their doctor's supervision, they have recently tapered their azathioprine from 100 to 50 mg every day without any increase in CDAI.
# [2] = system: IL-1beta; assay: Serum IL-1beta by ELISA in LPS-challenged mice; assay type: in vivo, BALB/c mice; conditions: bupropion 100 mg/kg i.p. 1 h before 600 μg LPS i.p., serum 90 min after LPS
# Description: To study the immunomodulatory effects of bupropion we used a mouse model in which TNF production is induced by stimulation with lipopolysaccharide (LPS) (Bozza et al, The PACAP-type I receptor agonist maxadilan from sand fly saliva protects mice against lethal endotoxemia by a mechanism partially dependent on IL-10, Eur. J. Immunol. 28, 3120-3127, 1998). BALB/c mice were injected intraperitoneally (i.p.) with bupropion or placebo 1 h prior to i.p. injection of LPS (600 ug/mouse).
# Male, 6 weeks old BALB/c mice were used in LPS-induced shock experiments. All mice were raised and maintained at the animal facilities at the Goncalo Moniz Research Center-FIOCRUZ, and provided with rodent diet and water ad libitum. Animal numbers in experimental groups were the minimum necessary to permit statistical analysis. All animals were sacrificed under anaesthesia. […]
# TNF, IL-1beta, IFN-gamma and IL-10 concentrations in serum samples or in supernatants from macrophage cultures were determined by enzyme-linked immunosorbent assay (ELISA) using antibody pairs and recombinant cytokines from R&D systems (Minneapolis, Minn., USA), according to the manufacturer's instructions. After incubation with streptoavidin-peroxidase conjugate (Sigma), the reaction was developed using 3,3′, 5,5′-tetramethylbenzidine (TMB) peroxidase substrate and read at 450 nm. The serum concentration of nitrite (NO2−) was determined by the Griess reaction, as an indicator of nitric oxide production (Green et al., Analysis of nitrate nitrite and [^15N] nitrite in biological fluids. Anal. Biochem 126, 131-138, 1982). […] The absorbance of the reaction product at 540 nm was measured using an ELISA reader. The NO2^− concentration was determined by using sodium nitrite as standard. Data were analyzed using Student's t test, one-way ANOVA or Newman-Keuls multiple comparison test, using Graph Pad Prism 3.0 software. […]
# [3] = system: platelet and leukocyte numbers in peripheral blood; assay: Platelet and leukocyte counts in peripheral blood 4 h after LPS challenge; assay type: in vivo, BALB/c mice; conditions: bupropion 100 mg/kg i.p. 1 h before LPS, hydrochloride
# Description: FIG. 6 is a bar graph depicting normalization of platelet and leukocyte levels by bupripion treatment. Groups of BALB/c mice were injected with bupropion 100 mg/kg (Wellbutrin, Glaxo) or with placebo i.p. in saline 1 h before challenge with 600 μg of LPS (DL-100) by i.p. route. Platelet and leukocyte numbers were evaluated in peripheral blood samples collected 4 h after LPS challenge in an automated cell counter (Bayer). * P<0.05 placebo compared with normal levels; # P<0.05 bupropion compared with placebo. In a shock often platelet levels drop precipitously due to intravascular coagulation and leukocyte also fall secondary to TNF induced apoptosis. The normalization by bupropion is consistent with the other effects of bupropion in this model.
# Groups of mice were injected intraperitoneally (i.p.) with a dose of 600 μg of LPS (from Escherichia coli serotype 0111 :B4, Sigma, St. Louis, Mo., USA) in saline (previously determined as LD 100) 1 h after injection of placebo or bupropion. In some experiments, groups of mice received i.p. injection of propranolol (1 mg/Kg), SCH23390 (25 μg/kg) and sulpiride (25 mg/Kg) 1 h prior to injection of bupropion. […]. To determine serum TNF, IL-1 beta and IL-10 levels, mice were sacrificed 90 min after injection of LPS and bled by axilar vein puncture. […]
# [4] = system: CD patients; conditions: Kast and Altschuler 2001; cited from earlier work
# [5] = system: β-adrenergic receptor; conditions: Garrcha et al. 1985; cited from earlier work
smiles,measurement,setting,value
"CC(NC(C)(C)C)C(=O)c1cccc(Cl)c1 (racemic) [bupropion, (.±.)-1-(3-chlorophenyl)-2-[(1,1-dimethylethyl)amino]-1-propanone hydrochloride]",CD flares since starting bupropion,"[1]; case patients, hydrochloride",no CD flares; also recorded: no CD flares or associated surgeries
same,time without abdominal symptoms or encopresis,[1]; person one on bupropion,19 months
same,CDAI,"[1]; person one, colonic CD, bupropion 150 mg three times daily, CDAI 202 before bupropion",approximately zero
same,abdominal cramping and blood per rectum after restarting bupropion,"[1]; person one, symptoms recurred on two self-chosen stops",remitted within weeks
same,CDAI,"[1]; person, Crohn's enteritis, bupropion 150 mg three times daily, CDAI approximately 275 before",about 45
same,Crohn's symptoms,"[1]; person, bupropion 150 mg three times daily",alleviated completely
same,side effects or toxicities,"[1]; two CD cases, over 2 years",without significant side effects or toxicities
same,remission of CD,[1]; two cases,near complete and long-lasting (over 2 years) remissions
same,serum IL-1beta level compared with placebo,[2]; listed as bupropion hydrochloride,decrease
same,serum IL-1beta level compared with placebo,[2]; hydrochloride,significantly reduced
same,serum IL-1beta level compared with placebo,"[2]; listed as Bupropion, hydrochloride",significantly decreased
same,leukocyte levels,[3],higher leukocyte levels; also recorded: normalization
same,platelet counts,[3],significantly higher than placebo treated mice and similar to those of normal mice; also recorded: normalization
same,clinical remission of CD (published cases),[4],clinical remission
same,compensatory β-adrenergic receptor down-regulation,[5],does not cause
